The term IC50 denotes the midpoint of a concentration-inhibition curve. Higher therefore signals weaker potency in that assay.

These results are taken from patent publication US10562887B2, “Triazolones and tetrazolones as inhibitors of ROCK” (BRISTOL-MYERS SQUIBB COMPANY, priority 2016, dated 2020).

The target of this assay is ROCK2 (Homo sapiens (Human), UniProt O75116). Nature of the assay: ROCK2 assay (peptide phosphorylation, LABCHIP 3000 Reader). The assay is classed as biochemical. The settings on record: 5 μM ATP, 1.5 μM peptide substrate. The procedure: The effectiveness of compounds of the present invention as ROCK inhibitors can be determined in a 30 μL, assay containing 20 mM HEPES, pH 7.5, 20 mM MgCl2, 0.015% Brij-35, 4 mM DTT, 5 μM ATP and 1.5 μM peptide substrate (FITC-AHA-AKRRRLSSLRA-OH). Compounds were dissolved in DMSO so that the final concentration of DMSO was <2%, and the reaction was initiated with Rho kinase variants. After incubation, the reaction was terminated by the addition of EDTA and the phosphorylated and non-phosphorylated peptides separated using a LABCHIP® 3000 Reader (Caliper Life Sciences). […] Compounds were tested in dose-response format, and the inhibition of kinase activity was calculated at each concentration of compound. The inhibition data were fit using a curve-fitting program to determine the IC50; i.e., the concentration of compound required to inhibit 50% of kinase activity.
ROCK2, sequence (O75116 whole entry, species assumed): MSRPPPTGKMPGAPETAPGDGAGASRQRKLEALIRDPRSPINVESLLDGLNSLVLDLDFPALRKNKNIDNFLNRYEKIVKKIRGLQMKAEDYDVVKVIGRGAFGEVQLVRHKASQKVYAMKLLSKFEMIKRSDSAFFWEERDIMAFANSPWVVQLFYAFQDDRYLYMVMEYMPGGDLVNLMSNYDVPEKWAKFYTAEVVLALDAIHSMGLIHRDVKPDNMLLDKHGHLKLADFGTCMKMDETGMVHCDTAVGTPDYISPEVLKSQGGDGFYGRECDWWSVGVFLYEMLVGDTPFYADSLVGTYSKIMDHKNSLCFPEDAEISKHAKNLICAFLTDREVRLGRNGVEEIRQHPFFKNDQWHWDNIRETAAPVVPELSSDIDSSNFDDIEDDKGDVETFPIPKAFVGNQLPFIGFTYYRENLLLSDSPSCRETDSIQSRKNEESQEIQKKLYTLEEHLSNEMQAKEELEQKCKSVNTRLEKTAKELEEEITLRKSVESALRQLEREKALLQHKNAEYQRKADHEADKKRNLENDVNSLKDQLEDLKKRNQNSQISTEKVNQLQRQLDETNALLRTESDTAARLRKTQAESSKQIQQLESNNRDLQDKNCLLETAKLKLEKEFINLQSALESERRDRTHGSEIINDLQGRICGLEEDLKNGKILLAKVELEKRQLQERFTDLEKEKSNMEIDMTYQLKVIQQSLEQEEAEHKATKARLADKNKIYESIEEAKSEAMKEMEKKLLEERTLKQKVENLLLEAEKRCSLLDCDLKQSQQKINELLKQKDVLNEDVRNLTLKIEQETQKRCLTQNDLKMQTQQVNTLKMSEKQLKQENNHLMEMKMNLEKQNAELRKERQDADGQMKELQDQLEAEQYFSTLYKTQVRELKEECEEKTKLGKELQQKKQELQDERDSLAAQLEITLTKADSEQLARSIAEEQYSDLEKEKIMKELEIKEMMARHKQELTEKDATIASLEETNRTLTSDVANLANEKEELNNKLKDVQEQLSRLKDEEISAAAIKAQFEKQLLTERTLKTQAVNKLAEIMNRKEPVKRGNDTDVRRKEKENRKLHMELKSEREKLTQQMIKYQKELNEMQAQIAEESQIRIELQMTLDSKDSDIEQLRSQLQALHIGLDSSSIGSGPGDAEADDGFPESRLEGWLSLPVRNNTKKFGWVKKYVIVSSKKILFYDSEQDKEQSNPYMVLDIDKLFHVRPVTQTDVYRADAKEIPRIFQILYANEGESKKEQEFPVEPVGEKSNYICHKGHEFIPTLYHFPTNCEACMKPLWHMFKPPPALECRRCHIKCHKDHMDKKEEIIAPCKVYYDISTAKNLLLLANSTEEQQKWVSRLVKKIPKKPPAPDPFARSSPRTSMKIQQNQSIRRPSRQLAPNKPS
Representative Examples were tested in the ROCK2 assay described above and found having ROCK2 inhibitory activity.
`COc1cccc(Cn2nc(C)n(-c3ccc(-c4cn[nH]c4)c(OC)c3)c2=O)c1` [Example 61, 4-(3-methoxy-4-(1H-pyrazol-4-yl)phenyl)-1-(3-methoxybenzyl)-3-methyl-1H-1,2,4-triazol-5(4H)-one] had a concentration for half-maximal inhibition (IC50) of 50 to 250 nM.

For the compound `COc1cccc(Cn2cnn(-c3ccc(-c4cn[nH]c4)cc3)c2=O)c1` [Example 18, 1-(4-(1H-pyrazol-4-yl)phenyl)-4-(3-methoxybenzyl)-1H-1,2,4-triazol-5(4H)-one], the IC50 is < 5 nM.

In turn, `COc1cc(F)cc(Cn2nc(C)n(-c3ccc(-c4cn[nH]c4)cc3)c2=O)c1` [Example 72, 4-(4-(1H-pyrazol-4-yl)phenyl)-1-(3-fluoro-5-methoxybenzyl)-3-methyl-1H-1,2,4-triazol-5(4H)-one] came in with an IC50 of 250 to 2000 nM.

`COc1cc(-n2nc(C)n(Cc3c(F)cccc3F)c2=O)ccc1-c1cn[nH]c1` [Example 98, 4-(2,6-difluorobenzyl)-1-(3-methoxy-4-(1H-pyrazol-4-yl)phenyl)-3-methyl-1H-1,2,4-triazol-5(4H)-one]: the IC50 fell in the range of 5 to 50 nM.

For `COc1cc(-n2c(C)nn(Cc3cccc(F)c3)c2=O)ccc1-c1cn[nH]c1` [Example 65, 1-(3-fluorobenzyl)-4-(3-methoxy-4-(1H-pyrazol-4-yl)phenyl)-3-methyl-1H-1,2,4-triazol-5(4H)-one], the IC50 lay in the range of 250 to 2000 nM.

In the case of `CC(C)(O)c1nn(-c2ccc(-c3cn[nH]c3)cc2)c(=O)n1Cc1cc(F)ccc1F` [Example 136, 1-(4-(1H-pyrazol-4-yl)phenyl)-4-(2,5-difluorobenzyl)-3-(2-hydroxypropan-2-yl)-1H-1,2,4-triazol-5(4H)-one], the half-maximal inhibitory concentration (IC50) fell in the range of 50 to 250 nM.

`CCc1cc(-n2nc(C)n(Cc3ccccc3F)c2=O)ccc1-c1cn[nH]c1` [Example 113, 1-(3-ethyl-4-(1H-pyrazol-4-yl)phenyl)-4-(2-fluorobenzyl)-3-methyl-1H-1,2,4-triazol-5(4H)-one] had an IC50 of 50 to 250 nM.

`COc1ccc(Cn2c(C)nn(-c3ccc(-c4cn[nH]c4)cc3)c2=O)cc1F` [Example 124, 1-(4-(1H-pyrazol-4-yl)phenyl)-4-(3-fluoro-4-methoxybenzyl)-3-methyl-1H-1,2,4-triazol-5(4H)-one] returned a concentration for half-maximal inhibition (IC50) of 250 to 2000 nM.

For `CCc1cc(-n2nc(C)n(C(C)c3ccccc3)c2=O)ccc1-c1cn[nH]c1` (centres unmarked) [Example 109, 1-(3-ethyl-4-(1H-pyrazol-4-yl)phenyl)-3-methyl-4-(1-phenylethyl)-1H-1,2,4-triazol-5(4H)-one], the half-inhibitory concentration (IC50) lay in the range of 250 to 2000 nM.

For the compound `COc1cc(-n2nc(C)n(CCc3ccccc3)c2=O)ccc1-c1cn[nH]c1` [Example 94, 1-(3-methoxy-4-(1H-pyrazol-4-yl)phenyl)-3-methyl-4-phenethyl-1H-1,2,4-triazol-5(4H)-one], the IC50 lay within 5 to 50 nM.

In turn, `COc1cc(F)cc(Cn2c(CNCCO)nn(-c3ccc(-c4cn[nH]c4)cc3)c2=O)c1` [Example 151, 1-(4-(1H-pyrazol-4-yl)phenyl)-4-(3-fluoro-5-methoxybenzyl)-3-(((2-hydroxyethyl)amino)methyl)-1H-1,2,4-triazol-5(4H)-one] registered an IC50 of 5 to 50 nM.

Consider `COc1cccc(Cn2cnn(-c3ccc(-c4ccnc(N)c4)cc3)c2=O)c1` [Example 162, 1-(4-(2-aminopyridin-4-yl)phenyl)-4-(3-methoxybenzyl)-1H-1,2,4-triazol-5(4H)-one], for which the IC50 is 5 to 50 nM.

With `O=c1n(Cc2ccccc2F)cnn1-c1ccc(-c2cn[nH]c2)cc1` [Example 28, 1-(4-(1H-pyrazol-4-yl)phenyl)-4-(2-fluorobenzyl)-1H-1,2,4-triazol-5(4H)-one], the IC50 lay within 5 to 50 nM.

Compound `CC(O)c1nn(-c2ccc(-c3cn[nH]c3)cc2)c(=O)n1Cc1ccccc1` (single isomer, unassigned) [Example 141, 1-(4-(1H-pyrazol-4-yl)phenyl)-4-benzyl-3-(1-hydroxyethyl)-1H-1,2,4-triazol-5(4H)-one] displayed a 50% inhibitory concentration (IC50) of 5 to 50 nM.

Compound `CCc1cc(-n2ncn(Cc3c(F)cccc3F)c2=O)ccc1-c1cn[nH]c1` [Example 57, 4-(2,6-difluorobenzyl)-1-(3-ethyl-4-(1H-pyrazol-4-yl)phenyl)-1H-1,2,4-triazol-5(4H)-one] displayed a 50% inhibitory concentration (IC50) of 250 to 2000 nM.

On to `COc1cccc(Cn2nc(C)n(-c3ccc(-c4cn[nH]c4)cc3OC)c2=O)c1` [Example 64, 4-(2-methoxy-4-(1H-pyrazol-4-yl)phenyl)-1-(3-methoxybenzyl)-3-methyl-1H-1,2,4-triazol-5(4H)-one], for which the IC50 was in the range of 250 to 2000 nM.

On to `COc1cccc(Cn2c(CN(C)C)nn(-c3ccc(-c4cn[nH]c4)cc3)c2=O)c1` [Example 142, 1-(4-(1H-pyrazol-4-yl)phenyl)-3-((dimethylamino)methyl)-4-(3-methoxybenzyl)-1H-1,2,4-triazol-5(4H)-one], for which the IC50 lay within 5 to 50 nM.

For `COc1cccc(C(C)n2c(C)nn(-c3ccc(-c4cn[nH]c4)cc3)c2=O)c1` (single isomer, unassigned) [Example 118, 1-(4-(1H-pyrazol-4-yl)phenyl)-4-(1-(3-methoxyphenyl)ethyl)-3-methyl-1H-1,2,4-triazol-5(4H)-one], the IC50 was in the range of 5 to 50 nM.

The compound `CC(c1ccccc1)n1nnn(-c2ccc(-c3cn[nH]c3)cc2)c1=O` (centres unmarked) [Example 176, 1-(4-(1H-pyrazol-4-yl)phenyl)-4-(1-phenylethyl)-1H-tetrazol-5(4H)-one] returned an IC50 of 5 to 50 nM.

The compound `COc1cc(-n2c(C)nn(Cc3cc(F)ccc3F)c2=O)ccc1-c1cn[nH]c1` [Example 68, 1-(2,5-difluorobenzyl)-4-(3-methoxy-4-(1H-pyrazol-4-yl)phenyl)-3-methyl-1H-1,2,4-triazol-5(4H)-one] registered an IC50 of 250 to 2000 nM.

Turning to `COc1cc(F)cc(Cn2c(CN(C)C)nn(-c3ccc(-c4cn[nH]c4)cc3)c2=O)c1` [Example 148, 1-(4-(1H-pyrazol-4-yl)phenyl)-3-((dimethylamino)methyl)-4-(3-fluoro-5-methoxybenzyl)-1H-1,2,4-triazol-5(4H)-one], the concentration for half-maximal inhibition (IC50) was 5 to 50 nM.

Consider `COc1cc(-n2nnn(Cc3ccccc3)c2=O)ccc1-c1cn[nH]c1` [Example 179, 1-benzyl-4-(3-methoxy-4-(1H-pyrazol-4-yl)phenyl)-1H-tetrazol-5(4H)-one], for which the concentration for half-maximal inhibition (IC50) is 50 to 250 nM.

As to `CCc1cc(-n2nc(C)n(Cc3cc(F)cc(OC)c3)c2=O)ccc1-c1cn[nH]c1` [Example 115, 1-(3-ethyl-4-(1H-pyrazol-4-yl)phenyl)-4-(3-fluoro-5-methoxybenzyl)-3-methyl-1H-1,2,4-triazol-5(4H)-one], the IC50 lay in the range of 5 to 50 nM.

The compound `Cc1nn(-c2ccc(-c3cn[nH]c3)cc2)c(=O)n1Cc1ccccc1Cl` [Example 86, 1-(4-(1H-pyrazol-4-yl)phenyl)-4-(2-chlorobenzyl)-3-methyl-1H-1,2,4-triazol-5(4H)-one] gave an IC50 of 5 to 50 nM.

Regarding `COc1cc(-c2cn[nH]c2)ccc1-n1c(C)nn(Cc2cc(F)ccc2F)c1=O` [Example 78, 1-(2,5-difluorobenzyl)-4-(2-methoxy-4-(1H-pyrazol-4-yl)phenyl)-3-methyl-1H-1,2,4-triazol-5(4H)-one], the half-maximal inhibitory concentration (IC50) is 50 to 250 nM.

`Cc1nn(-c2ccc(-c3cn[nH]c3)cc2)c(=O)n1Cc1ccccc1` [Example 79, 1-(4-(1H-pyrazol-4-yl)phenyl)-4-benzyl-3-methyl-1H-1,2,4-triazol-5(4H)-one] came in with a half-maximal inhibitory concentration (IC50) of 5 to 50 nM.
